# According to ChEMBL document CHEMBL5543096 (J Med Chem, 2024):
# Active and inactive are the calls of the source. No cut-off for these calls is given here.
# What was measured:
# [1] = AUC (0 to last) in Sprague-Dawley rat at 0.3 mg/kg,iv measured at 0.05 to 24 hrs of post administration by LC-MS/MS analysis; assay type: ADME, organism-based; conditions: in vivo, time 0.05-24 hrs
# HT-22 = assay: Neuroprotective activity against CORT-induced cytotoxicity in mouse HT-22 cells assessed as increase in cell viability at 12.5 to 100 uM incubated for 24 hrs by CCK-8 assay; assay type: functional, cell-based; conditions: dose 12.5-100 µM
# [2] = MRT (0 to last) in Sprague-Dawley rat at 0.3 mg/kg,iv measured at 0.05 to 24 hrs of post administration by LC-MS/MS analysis; assay type: ADME, organism-based; conditions: in vivo, time 0.05-24 hrs
# [3] = Toxicity in chronic restraint stress-induced depressive C57BL/6J mouse model assessed as lung pathological change at 25 to 300 microg/kg,ip administrated on day 29 to 33 measured on day 36 by hematoxylin and eosin staining based microscopic analysis; assay type: tissue-based; conditions: in vivo, 192 h, dose 25-300 µg/kg, time 8 day
# Mus musculus [4] = assay: Antidepressant activity in Reserpine-induced depressive ICR mouse model assessed as decrease in immobility time at ip administrated on day 4 to 8 measured on day 10 by forced swimming test; assay type: functional, organism-based; conditions: time 7.0 day
# [5] = Cmax in Sprague-Dawley rat at 0.3 mg/kg,ip measured at 0.05 to 24 hrs of post administration by LC-MS/MS analysis; assay type: ADME, organism-based; conditions: in vivo, time 0.05-24 hrs
# [6] = MRT (0 to infinity) in Sprague-Dawley rat at 0.3 mg/kg,iv measured at 0.05 to 24 hrs of post administration by LC-MS/MS analysis; assay type: ADME, organism-based; conditions: in vivo, time 0.05-24 hrs
# [7] = Toxicity in chronic restraint stress-induced depressive C57BL/6J mouse model assessed as liver pathological change at 25 to 300 microg/kg,ip administrated on day 29 to 33 measured on day 36 by hematoxylin and eosin staining based microscopic analysis; assay type: tissue-based; conditions: in vivo, 192 h, dose 25-300 µg/kg, time 8 day
# Mus musculus [8] = assay: Antidepressant activity in Reserpine-induced depressive ICR mouse model assessed as decrease in immobility time at 300 microg/kg,ip administrated on day 4 to 8 measured on day 11 by tail suspension test; assay type: functional, organism-based; conditions: dose 300.0 µg/kg, time 8.0 day
# Mus musculus [9] = assay: Antidepressant activity in chronic restraint stress-induced depressive C57BL/6J mouse model assessed as increase in hippocampal BDNF protein expression at 0.3 mg/kg,ip administration measured after 8 hrs by Western blotting analysis; assay type: functional, organism-based
# Mus musculus [10] = assay: Antidepressant activity in chronic restraint stress-induced depressive C57BL/6J mouse model assessed as increase in hippocampal BDNF protein expression at 0.3 mg/kg,ip administration measured after 24 hrs by Western blotting analysis; assay type: functional, organism-based
# Mus musculus [11] = assay: Antidepressant activity in chronic restraint stress-induced depressive C57BL/6J mouse model assessed as increase in hippocampal BDNF mRNA expression at 0.3 mg/kg,ip administration measured after 8 hrs by qRT-PCR analysis; assay type: functional, organism-based
# [12] = Toxicity in chronic restraint stress-induced depressive C57BL/6J mouse model assessed as spleen pathological change at 25 to 300 microg/kg,ip administrated on day 29 to 33 measured on day 36 by hematoxylin and eosin staining based microscopic analysis; assay type: tissue-based; conditions: in vivo, 192 h, dose 25-300 µg/kg, time 8 day
# [13] = MRT (0 to infinity) in Sprague-Dawley rat at 0.3 mg/kg,ip measured at 0.05 to 24 hrs of post administration by LC-MS/MS analysis; assay type: ADME, organism-based; conditions: in vivo, time 0.05-24 hrs
# [14] = Toxicity in chronic restraint stress-induced depressive C57BL/6J mouse model assessed as heart pathological change at 25 to 300 microg/kg,ip administrated on day 29 to 33 measured on day 36 by hematoxylin and eosin staining based microscopic analysis; assay type: tissue-based; conditions: in vivo, 192 h, dose 25-300 µg/kg, time 8 day
# [15] = AUC (0 to infinity) in Sprague-Dawley rat at 0.3 mg/kg,ip measured at 0.05 to 24 hrs of post administration by LC-MS/MS analysis; assay type: ADME, organism-based; conditions: in vivo, time 0.05-24 hrs
# [16] = Toxicity in chronic restraint stress-induced depressive C57BL/6J mouse model assessed as decrease in percentage of spontaneous alternation at 2 mg/kg,ip administration by Y-maze test; assay type: organism-based; conditions: in vivo
# [17] = MRT (0 to last) in Sprague-Dawley rat at 0.3 mg/kg,ip measured at 0.05 to 24 hrs of post administration by LC-MS/MS analysis; assay type: ADME, organism-based; conditions: in vivo, time 0.05-24 hrs
# Mus musculus [18] = assay: Antidepressant activity in Reserpine-induced depressive ICR mouse model assessed as change in total distance traveled at 25 to 300 microg/kg,ip administrated on day 4 to 8 measured on day 9 by open field test; assay type: functional, organism-based; conditions: dose 25-300 µg/kg, time 6.0 day
# Mus musculus [19] = assay: Antidepressant activity in chronic restraint stress-induced depressive C57BL/6J mouse model assessed as increase in hippocampal BDNF mRNA expression at 0.3 mg/kg,ip administration measured after 24 hrs by qRT-PCR analysis; assay type: functional, organism-based
# [20] = Toxicity in chronic restraint stress-induced depressive C57BL/6J mouse model assessed as decrease in percentage of spontaneous alternation at 1 mg/kg,ip administration by Y-maze test; assay type: organism-based; conditions: in vivo
# [21] = Half life in Sprague-Dawley rat at 0.3 mg/kg,iv measured at 0.05 to 24 hrs of post administration by LC-MS/MS analysis; assay type: ADME, organism-based; conditions: in vivo, time 0.05-24 hrs
# [22] = Cmax in Sprague-Dawley rat at 0.3 mg/kg,iv measured at 0.05 to 24 hrs of post administration by LC-MS/MS analysis; assay type: ADME, organism-based; conditions: in vivo, time 0.05-24 hrs
# [23] = molecular target: T1, Muscarinic acetylcholine receptor M1 (Homo sapiens, UniProt P11229); assay: Antagonist activity at human muscarinic M1 receptor expressed in CHO cells incubated for 10 mins in presence of acetylcholine by inositol 1-phosphate accumulation assay; assay type: functional, cell-based
# T1 sequence (P11229 whole entry): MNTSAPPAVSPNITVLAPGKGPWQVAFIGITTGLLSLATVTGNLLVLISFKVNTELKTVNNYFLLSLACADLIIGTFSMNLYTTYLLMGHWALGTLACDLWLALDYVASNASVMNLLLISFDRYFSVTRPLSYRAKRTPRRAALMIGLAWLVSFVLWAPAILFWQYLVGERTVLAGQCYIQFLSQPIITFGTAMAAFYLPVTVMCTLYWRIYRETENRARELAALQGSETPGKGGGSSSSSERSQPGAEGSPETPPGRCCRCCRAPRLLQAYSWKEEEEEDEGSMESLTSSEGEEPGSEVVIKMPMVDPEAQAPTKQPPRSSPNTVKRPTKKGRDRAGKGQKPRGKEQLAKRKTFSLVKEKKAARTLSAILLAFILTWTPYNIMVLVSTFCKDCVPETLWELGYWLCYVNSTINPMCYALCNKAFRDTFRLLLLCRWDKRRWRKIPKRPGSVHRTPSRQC
# [24] = AUC (0 to infinity) in Sprague-Dawley rat at 0.3 mg/kg,iv measured at 0.05 to 24 hrs of post administration by LC-MS/MS analysis; assay type: ADME, organism-based; conditions: in vivo, time 0.05-24 hrs
# Mus musculus [25] = assay: Antidepressant activity in Reserpine-induced depressive C57BL/6J mouse model assessed as decrease in immobility time at 0.1 to 0.3 mg/kg,ip administration measured after 7 days by tail suspension test; assay type: functional, organism-based; conditions: dose 0.1-0.3 mg/kg, time 7.0 day
# [26] = Half life in Sprague-Dawley rat at 0.3 mg/kg,ip measured at 0.05 to 24 hrs of post administration by LC-MS/MS analysis; assay type: ADME, organism-based; conditions: in vivo, time 0.05-24 hrs
structure (smiles),measurement,setting,value
CN1[C@@H]2C[C@@H](OC(=O)[C@@](F)(CO)c3ccccc3)C[C@H]1[C@@H]1O[C@@H]12,AUC(0-t),[1],68.3 ng·h/mL
same,Activity,HT-22,Active
same,MRT last,[2],13.8 min
same,Activity,[3],Non-Toxic
same,Activity,Mus musculus [4],Dose-Dependent Effect
same,Cmax,[5],41.9 ng/mL
same,MRT inf,[6],16.6 min
same,Activity,[7],Non-Toxic
same,Activity,Mus musculus [8],Active
same,Activity,Mus musculus [9],Active
same,Activity,Mus musculus [10],inactive
same,Activity,Mus musculus [11],Active
same,Activity,[12],Non-Toxic
same,MRT inf,[13],27.3 min
same,Activity,[14],Non-Toxic
same,AUC(0-inf),[15],25.9 ng·h/mL
same,Activity,[16],Non-Toxic
same,MRT last,[17],23 min
same,Activity,Mus musculus [18],inactive
same,Activity,Mus musculus [19],inactive
same,Activity,[20],Non-Toxic
same,half-life,[21],13.9 min
same,Cmax,[22],230 ng/mL
same,IC50,[23],14.6 nM
same,AUC(0-inf),[24],71.4 ng·h/mL
same,Activity,Mus musculus [25],Active
same,half-life,[26],16.6 min
